Source: US11173151B2, “Substituted triazole derivatives and uses thereof” (BAYER AKTIENGESELLSCHAFT, priority 2017, dated 2021)

Legend:
[1] = target: T1, human V1a receptor (Homo sapiens, UniProt P37288); test: Cellular in vitro assay for determining vasopressin receptor activity, V1a receptor cell line (CHO, aequorin luminescence); format: cell-based; conditions: for IC50: CHO cell line transfected with human V1a receptor, [Arg]-vasopressin at EC50 concentration, read-out: IC50 hV1a; for ratio IC50 hV2/hV1a: selectivity ratio IC50 hV2 / IC50 hV1a
T1 construct: expressed in transfected cells; host or cells: CHO K1 (ATCC), also stably transfected with a modified aequorin
How it was run: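 CHO K1/aequorin cells, coelenterazine 5 μg/ml o/n; cpd 10 min; [Arg]-vasopressin at EC50; luminescence read immediately; IC50.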

[2] = target: T2, human V2 receptor (Homo sapiens, UniProt P30518); test: Cellular in vitro assay for determining vasopressin receptor activity, V2 receptor cell line (CHO, CRE-luciferase); format: cell-based; conditions: CHO cell line transfected with human V2 receptor; [Arg8]-vasopressin at EC50 concentration, 3 hours; read-out: IC50 hV2
T2 construct: expressed in transfected cells; host or cells: CHO K1 (ATCC) expressing firefly luciferase under a CRE-responsive promoter
T2 sequence (P30518 whole entry): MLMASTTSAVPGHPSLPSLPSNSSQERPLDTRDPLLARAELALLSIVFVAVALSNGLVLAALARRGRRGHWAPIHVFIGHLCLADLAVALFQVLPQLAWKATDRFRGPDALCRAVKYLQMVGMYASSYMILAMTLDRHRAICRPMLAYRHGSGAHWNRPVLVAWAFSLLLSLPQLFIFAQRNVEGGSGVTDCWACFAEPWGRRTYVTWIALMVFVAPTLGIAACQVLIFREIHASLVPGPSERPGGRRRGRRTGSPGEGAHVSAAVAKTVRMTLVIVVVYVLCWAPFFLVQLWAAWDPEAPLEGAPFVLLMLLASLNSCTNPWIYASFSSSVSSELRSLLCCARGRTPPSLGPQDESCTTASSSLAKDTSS

T1 sequence (P37288 whole entry): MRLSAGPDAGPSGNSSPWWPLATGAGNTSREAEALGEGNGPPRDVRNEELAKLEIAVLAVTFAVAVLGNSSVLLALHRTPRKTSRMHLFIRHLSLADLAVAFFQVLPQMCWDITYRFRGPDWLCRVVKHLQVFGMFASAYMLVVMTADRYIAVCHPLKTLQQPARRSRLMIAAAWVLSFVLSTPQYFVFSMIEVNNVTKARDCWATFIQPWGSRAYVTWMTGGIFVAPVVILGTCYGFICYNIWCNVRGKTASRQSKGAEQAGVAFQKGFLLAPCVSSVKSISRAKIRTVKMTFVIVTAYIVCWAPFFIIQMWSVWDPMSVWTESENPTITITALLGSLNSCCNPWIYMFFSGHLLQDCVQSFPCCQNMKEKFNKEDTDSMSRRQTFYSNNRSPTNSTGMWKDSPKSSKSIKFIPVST

SMILES	IC50 [1] [nM]	ratio IC50 hV2/hV1a [1]	IC50 [2] [nM]
Cc1cc(NC(=O)c2ccccc2-n2cnc(Cn3nc(-c4ccc(Cl)cc4)n(C[C@H](O)C(F)(F)F)c3=O)n2)n(C)n1 [Example 213, 2-[3-({3-(4-Chlorophenyl)-5-oxo-4-[(2S)-3,3,3-trifluoro-2-hydroxypropyl]-4,5-dihydro-1H-1,2,4-triazol-1-yl}methyl)-1H-1,2,4-triazol-1-yl]-N-(1,3-dimethyl-1H-pyrazol-5-yl)benzamide]	7.55	178.1	1340
Cc1n[nH]c(C)c1NC(=O)c1ccccc1-n1cnc(Cn2nc(-c3ccc(Cl)cc3)n(C[C@H](O)C(F)(F)F)c2=O)n1 [Example 214, 2-[3-({3-(4-Chlorophenyl)-5-oxo-4-[(2S)-3,3,3-trifluoro-2-hydroxypropyl]-4,5-dihydro-1H-1,2,4-triazol-1-yl}methyl)-1H-1,2,4-triazol-1-yl]-N-(3,5-dimethyl-1H-pyrazol-4-yl)benzamide]	1.65	854.5	1410
CCn1nccc1NC(=O)c1ccccc1-n1cnc(Cn2nc(-c3ccc(Cl)cc3)n(C[C@H](O)C(F)(F)F)c2=O)n1 [Example 215, 2-[3-({3-(4-Chlorophenyl)-5-oxo-4-[(2S)-3,3,3-trifluoro-2-hydroxypropyl]-4,5-dihydro-1H-1,2,4-triazol-1-yl}methyl)-1H-1,2,4-triazol-1-yl]-N-(1-ethyl-1H-pyrazol-5-yl)benzamide]	11.7	102.1	1200
CC(NC(=O)c1ccccc1-n1cnc(Cn2nc(-c3ccc(Cl)cc3)n(C[C@H](O)C(F)(F)F)c2=O)n1)c1ccon1 (stereo partly drawn) [Example 216, 2-[3-({3-(4-Chlorophenyl)-5-oxo-4-[(2S)-3,3,3-trifluoro-2-hydroxypropyl]-4,5-dihydro-1H-1,2,4-triazol-1-yl}methyl)-1H-1,2,4-triazol-1-yl]-N-[1-(1,2-oxazol-3-yl)ethyl]benzamide]	12	14.2	170
O=C(Nc1n[nH]cc1Cl)c1ccccc1-n1cnc(Cn2nc(-c3ccc(Cl)cc3)n(C[C@H](O)C(F)(F)F)c2=O)n1 [Example 218, 2-[3-({3-(4-Chlorophenyl)-5-oxo-4-[(2S)-3,3,3-trifluoro-2-hydroxypropyl]-4,5-dihydro-1H-1,2,4-triazol-1-yl}methyl)-1H-1,2,4-triazol-1-yl]-N-(4-chloro-1H-pyrazol-3-yl)benzamide]	0.32	24.4	7.8
O=C(Nc1cccc[n+]1[O-])c1ccccc1-n1cnc(Cn2nc(-c3ccc(Cl)cc3)n(C[C@H](O)C(F)(F)F)c2=O)n1 [Example 219, 2-[3-({3-(4-Chlorophenyl)-5-oxo-4-[(2S)-3,3,3-trifluoro-2-hydroxypropyl]-4,5-dihydro-1H-1,2,4-triazol-1-yl}methyl)-1H-1,2,4-triazol-1-yl]-N-(1-oxidopyridin-2-yl)benzamide]	21	2.0	41.5
Cc1cncc(NC(=O)c2ccccc2-n2cnc(Cn3nc(-c4ccc(Cl)cc4)n(C[C@H](O)C(F)(F)F)c3=O)n2)c1 [Example 220, 2-[3-({3-(4-Chlorophenyl)-5-oxo-4-[(2S)-3,3,3-trifluoro-2-hydroxypropyl]-4,5-dihydro-1H-1,2,4-triazol-1-yl}methyl)-1H-1,2,4-triazol-1-yl]-N-(5-methylpyridin-3-yl)benzamide]	3.65	58.9	215
CC1CCC(C)C1NC(=O)c1ccccc1-n1cnc(Cn2nc(-c3ccc(Cl)cc3)n(C[C@H](O)C(F)(F)F)c2=O)n1 (stereo partly drawn) [Example 222, 2-[3-({3-(4-Chlorophenyl)-5-oxo-4-[(2S)-3,3,3-trifluoro-2-hydroxypropyl]-4,5-dihydro-1H-1,2,4-triazol-1-yl}methyl)-1H-1,2,4-triazol-1-yl]-N-(2,5-dimethylcyclopentyl)benzamide]	4.85	38.1	185
O=C(Nc1nccs1)c1ccccc1-n1cnc(Cn2nc(-c3ccc(Cl)cc3)n(C[C@H](O)C(F)(F)F)c2=O)n1 [Example 223, 2-[3-({3-(4-Chlorophenyl)-5-oxo-4-[(2S)-3,3,3-trifluoro-2-hydroxypropyl]-4,5-dihydro-1H-1,2,4-triazol-1-yl}methyl)-1H-1,2,4-triazol-1-yl]-N-(1,3-thiazol-2-yl)benzamide]	1.5	0.8	1.15
NC(=O)CNC(=O)c1ccccc1-n1cnc(Cn2nc(-c3ccc(Cl)cc3)n(C[C@H](O)C(F)(F)F)c2=O)n1 [Example 225, N-(2-Amino-2-oxoethyl)-2-[3-({3-(4-chlorophenyl)-5-oxo-4-[(2S)-3,3,3-trifluoro-2-hydroxypropyl]-4,5-dihydro-1H-1,2,4-triazol-1-yl}methyl)-1H-1,2,4-triazol-1-yl]benzamide]	5.5	38.2	210
Cc1ccnc(NC(=O)c2ccccc2-n2cnc(Cn3nc(-c4ccc(Cl)cc4)n(C[C@H](O)C(F)(F)F)c3=O)n2)c1 [Example 230, 2-[3-({3-(4-Chlorophenyl)-5-oxo-4-[(2S)-3,3,3-trifluoro-2-hydroxypropyl]-4,5-dihydro-1H-1,2,4-triazol-1-yl}methyl)-1H-1,2,4-triazol-1-yl]-N-(4-methylpyridin-2-yl)benzamide]	8.5	6.6	56.5
CONC(=O)c1ccccc1-n1cnc(Cn2nc(-c3ccc(Cl)cc3)n(C[C@H](O)C(F)(F)F)c2=O)n1 [Example 232, 2-[3-({3-(4-Chlorophenyl)-5-oxo-4-[(2S)-3,3,3-trifluoro-2-hydroxypropyl]-4,5-dihydro-1H-1,2,4-triazol-1-yl}methyl)-1H-1,2,4-triazol-1-yl]-N-methoxybenzamide]	2.2	243.2	535

Results, then the molecule that gave them:

IC50 [1] [nM]	ratio IC50 hV2/hV1a [1]	IC50 [2] [nM]	SMILES
6.65	25.6	170	O=C(Nc1ccc(F)cn1)c1ccccc1-n1cnc(Cn2nc(-c3ccc(Cl)cc3)n(C[C@H](O)C(F)(F)F)c2=O)n1 [Example 211, 2-[3-({3-(4-Chlorophenyl)-5-oxo-4-[(2S)-3,3,3-trifluoro-2-hydroxypropyl]-4,5-dihydro-1H-1,2,4-triazol-1-yl}methyl)-1H-1,2,4-triazol-1-yl]-N-(5-fluoropyridin-2-yl)benzamide]
23.5	24.5	575	O=C(Nc1cc(O)[nH]n1)c1ccccc1-n1cnc(Cn2nc(-c3ccc(Cl)cc3)n(C[C@H](O)C(F)(F)F)c2=O)n1 [Example 212, 2-[3-({3-(4-Chlorophenyl)-5-oxo-4-[(2S)-3,3,3-trifluoro-2-hydroxypropyl]-4,5-dihydro-1H-1,2,4-triazol-1-yl}methyl)-1H-1,2,4-triazol-1-yl]-N-(5-hydroxy-1H-pyrazol-3-yl)benzamide]
3.95	23.7	93.5	O=C(Nc1ccc(F)cc1O)c1ccccc1-n1cnc(Cn2nc(-c3ccc(Cl)cc3)n(C[C@H](O)C(F)(F)F)c2=O)n1 [Example 217, 2-[3-({3-(4-Chlorophenyl)-5-oxo-4-[(2S)-3,3,3-trifluoro-2-hydroxypropyl]-4,5-dihydro-1H-1,2,4-triazol-1-yl}methyl)-1H-1,2,4-triazol-1-yl]-N-(4-fluoro-2-hydroxyphenyl)benzamide]
4.95	92.9	460	Cc1ncccc1NC(=O)c1ccccc1-n1cnc(Cn2nc(-c3ccc(Cl)cc3)n(C[C@H](O)C(F)(F)F)c2=O)n1 [Example 221, 2-[3-({3-(4-Chlorophenyl)-5-oxo-4-[(2S)-3,3,3-trifluoro-2-hydroxypropyl]-4,5-dihydro-1H-1,2,4-triazol-1-yl}methyl)-1H-1,2,4-triazol-1-yl]-N-(2-methylpyridin-3-yl)benzamide]
1.3	5.7	7.45	O=C(Nc1ccc(Cl)nc1)c1ccccc1-n1cnc(Cn2nc(-c3ccc(Cl)cc3)n(C[C@H](O)C(F)(F)F)c2=O)n1 [Example 226, 2-[3-({3-(4-Chlorophenyl)-5-oxo-4-[(2S)-3,3,3-trifluoro-2-hydroxypropyl]-4,5-dihydro-1H-1,2,4-triazol-1-yl}methyl)-1H-1,2,4-triazol-1-yl]-N-(6-chloropyridin-3-yl)benzamide]
1.21	55.8	67.5	O=C(Nc1cccc(O)c1)c1ccccc1-n1cnc(Cn2nc(-c3ccc(Cl)cc3)n(C[C@H](O)C(F)(F)F)c2=O)n1 [Example 227, 2-[3-({3-(4-Chlorophenyl)-5-oxo-4-[(2S)-3,3,3-trifluoro-2-hydroxypropyl]-4,5-dihydro-1H-1,2,4-triazol-1-yl}methyl)-1H-1,2,4-triazol-1-yl]-N-(3-hydroxyphenyl)benzamide]
5.65	26.5	150	Cc1cc(NC(=O)c2ccccc2-n2cnc(Cn3nc(-c4ccc(Cl)cc4)n(C[C@H](O)C(F)(F)F)c3=O)n2)ccc1F [Example 228, 2-[3-({3-(4-Chlorophenyl)-5-oxo-4-[(2S)-3,3,3-trifluoro-2-hydroxypropyl]-4,5-dihydro-1H-1,2,4-triazol-1-yl}methyl)-1H-1,2,4-triazol-1-yl]-N-(4-fluoro-3-methylphenyl)benzamide]
2.35	21.1	49.5	Cc1ccc(F)cc1NC(=O)c1ccccc1-n1cnc(Cn2nc(-c3ccc(Cl)cc3)n(C[C@H](O)C(F)(F)F)c2=O)n1 [Example 229, 2-[3-({3-(4-Chlorophenyl)-5-oxo-4-[(2S)-3,3,3-trifluoro-2-hydroxypropyl]-4,5-dihydro-1H-1,2,4-triazol-1-yl}methyl)-1H-1,2,4-triazol-1-yl]-N-(5-fluoro-2-methylphenyl)benzamide]
